Data as given in patent US8071600B2, “Derivatives of 4-piperazin-1-yl-4-benzo[B]thiophene suitable for the treatment of CNS disorders” (Otsuka Pharmaceutical Co., Ltd., priority 2005, dated 2011).
Where a name gives a salt, the structure may show the parent alone.

How the values were obtained:
[1] = target: T1, Serotonin 5-HT2A receptor (Rattus norvegicus, UniProt P14842); assay: Serotonin 5-HT2A receptor binding assay ([3H]-Ketanserin); settings: Serotonin 5-HT2A receptor binding test, rat frontal cortex membrane, Ki calculated from IC50 by Cheng-Prussoff formula
T1 construct: from tissue; host or cells: Wistar rat brain, frontal cortex membranes
Method: 2) Serotonin 5-HT2A Receptor Binding Assay
The assay was performed according to the method by Leysen J E et al. (Leysen J E, Niemegeers C J E, Van Nueten J M and Laduron P M. [3H] Ketanserin (R 41 468), a selective 3H-ligand for serotonin 2 receptor binding sites. Mol. Pharmacol., 1982, 21: 301-314).
Wistar male rats were decapitated, the brain was retrieved immediately and frontal cortex was taken out. It was homogenized in 0.25 M sucrose of a volume 10 times of the weight of the tissue using a Teflon glass homogenizer, and centrifuged at 4° C., 1,000×g for 10 minutes. The obtained supernatant was transferred to another centrifuge tube and suspended in 0.25 M sucrose of a volume 5 times of the weight of the tissue and the precipitate was centrifuged in the above-described condition. The obtained supernatant was combined with the supernatant obtained above and adjusted to a volume 40 times of the weight of the tissue with 50 mM Tris-hydrochloric acid buffer (pH 7.4), and centrifuged at 4° C., 35,000×g for 10 minutes. The obtained precipitate was suspended again in the above-described buffer of a volume 40 times of the weight of the tissue and centrifuged in the above-described condition. The obtained precipitate was suspended in the above-described buffer of a volume 20 times of the weight of the tissue and preserved by freezing at −85° C. till it was used for binding assay as a membrane specimen.
The binding assay was performed using 40 μl of the membrane specimen, 20 μl of [^3H]-Ketanserin (final concentration 1 to 3 nM), 20 μl of a test drug and 50 mM Tris-hydrochloric acid buffer (pH 7.4) so that the total amount was 200 μl (final dimethylsulfoxide concentration 1%). The reaction was performed at 37° C. for 20 minutes and terminated by conducting suction filtration with a cell harvester on a glass fiber filter plate.
The filter plate made of glass fiber was washed with 50 mM Tris-hydrochloric acid buffer (pH 7.4), and after dried, a microplate liquid scintillation cocktail was added and the radioactivity was measured with a microplate scintillation counter. Radioactivity in the presence of 10 μM spiperone was assumed as nonspecific binding.
(§1) IC50 value was calculated from concentration-dependent reaction using a non-linear analysis program. Ki value was calculated from IC50 value using Cheng-Prussoff formula.

[2] = target: T2, Dopamine D2 receptor (Rattus norvegicus, UniProt P61169); assay: Dopamine D2 receptor binding assay ([3H]-raclopride); settings: Dopamine D2 receptor binding test, rat corpus striatum membrane, Ki calculated from IC50 by Cheng-Prussoff formula
T2 construct: from tissue; host or cells: Wistar rat brain, corpus striatum membranes
Method: 1) Dopamine D2 Receptor Binding Assay
The assay was performed according to the method by Kohler et al. (Kohler C, Hall H, Ogren S O and Gawell L, Specific in vitro and in vivo binding of 3H-raclopride. A potent substituted benzamide drug with high affinity for dopamine D-2 receptors in the rat brain. Biochem. Pharmacol., 1985; 34: 2251-2259).
Wistar male rats were decapitated, the brain was retrieved immediately and corpus striatum was taken out. It was homogenized in 50 mM tris(hydroxymethyl)aminomethane (Tris)-hydrochloric acid buffer (pH 7.4) of a volume 50 times of the weight of the tissue using a homogenizer with a high-speed rotating blade, and centrifuged at 4° C., 48,000×g for 10 minutes. The obtained precipitate was suspended again in the above-described buffer of a volume 50 times of the weight of the tissue and after incubated at 37° C. for 10 minutes, centrifuged in the above-described condition. The obtained precipitate was suspended in 50 mM (Tris)-hydrochloric acid buffer (containing 120 mM NaCl, 5 mM KCl, 2 mM CaCl2, 1 mM MgCl2, pH 7.4) of a volume 25 times of the weight of the tissue and preserved by freezing at −85° C. till it was used for binding assay as a membrane specimen.
The binding assay was performed using 40 μl of the membrane specimen, 20 μl of [^3H]-raclopride (final concentration 1 to 2 nM), 20 μl of a test drug and 50 mM Tris-hydrochloric acid buffer (containing 120 mM NaCl, 5 mM KCl, 2 mM CaCl2, 1 mM MgCl2, pH 7.4) so that the total amount was 200 μl (final dimethylsulfoxide concentration 1%). The reaction was performed at room temperature for 1 hour and terminated by conducting suction filtration with a cell harvester on a glass fiber filter plate. The filter plate made of glass fiber was washed with 50 mM Tris-hydrochloric acid buffer (pH 7.4), and after dried, a microplate liquid scintillation cocktail was added and the radioactivity was measured with a microplate scintillation counter. Radioactivity in the presence of 10 μM (+)-butaclamol hydrochloride was assumed as nonspecific binding.
as §1

T2 sequence (P61169 whole entry): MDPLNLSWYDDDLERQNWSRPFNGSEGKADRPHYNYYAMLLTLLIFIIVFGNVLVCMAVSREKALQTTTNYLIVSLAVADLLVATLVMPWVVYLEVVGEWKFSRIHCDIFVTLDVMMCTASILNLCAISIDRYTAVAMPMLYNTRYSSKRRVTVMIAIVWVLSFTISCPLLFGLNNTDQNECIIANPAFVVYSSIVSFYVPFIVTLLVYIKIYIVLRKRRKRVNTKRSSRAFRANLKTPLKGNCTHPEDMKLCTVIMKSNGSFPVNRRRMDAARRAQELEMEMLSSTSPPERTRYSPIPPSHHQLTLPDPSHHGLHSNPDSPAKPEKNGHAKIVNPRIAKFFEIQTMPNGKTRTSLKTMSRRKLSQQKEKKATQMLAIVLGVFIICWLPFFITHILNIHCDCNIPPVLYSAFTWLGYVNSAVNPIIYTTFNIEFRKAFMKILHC
T1 sequence (P14842 whole entry): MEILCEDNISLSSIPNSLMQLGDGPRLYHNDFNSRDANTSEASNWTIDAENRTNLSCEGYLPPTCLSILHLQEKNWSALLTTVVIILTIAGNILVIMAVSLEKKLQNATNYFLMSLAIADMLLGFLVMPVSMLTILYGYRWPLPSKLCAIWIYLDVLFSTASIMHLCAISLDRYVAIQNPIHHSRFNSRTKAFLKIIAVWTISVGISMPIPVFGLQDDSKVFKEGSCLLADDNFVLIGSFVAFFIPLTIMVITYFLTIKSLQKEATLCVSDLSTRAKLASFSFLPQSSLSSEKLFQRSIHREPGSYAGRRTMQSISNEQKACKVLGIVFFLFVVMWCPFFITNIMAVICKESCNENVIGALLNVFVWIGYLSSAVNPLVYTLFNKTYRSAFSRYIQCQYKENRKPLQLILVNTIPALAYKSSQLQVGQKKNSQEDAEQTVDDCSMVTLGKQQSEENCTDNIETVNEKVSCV

Row | melting point | Ki [1] [nM] | Ki [2] [nM] | SMILES
1 | 253 to 258 °C (dec.) |  |  | O=C1Nc2cc(OCCCCN3CCN(c4cccc5sccc45)CC3)ccc2CO1 (as salt: hydrochloride) [Example 133]
2 | 217.5 to 221 °C |  |  | COc1cc(N2CCN(C(C)=O)CC2)cc(CO)c1OCCCN1CCN(c2cccc3sccc23)CC1 (as salt: hydrochloride) [Example 1084]
3 | 256.5 °C (dec.) |  |  | CCN(C)Cc1ccc(OCCCN2CCN(c3cccc4sccc34)CC2)c(C)c1 (as salt: hydrochloride) [Example 307]
4 | 215 to 217 °C |  |  | O=C1Cc2ccc(OCCCCN3CCN(c4cccc5sccc45)CC3)cc2N1 (as salt: hydrochloride) [Example 127]
5 | 208 to 210 °C |  |  | CC(=O)N1CCC(OCCCN2CCN(c3cccc4sccc34)CC2)CC1.Cl
6 | 283 to 285 °C |  |  | CC(=O)Nc1ccc(OCCCN2CCN(c3cccc4sccc34)CC2)cc1 (as salt: hydrochloride) [Example 343]
7 | 151 to 153.5 °C |  |  | CCNC(=O)c1csc(OCCCN2CCN(c3cccc4sccc34)CC2)n1 (as salt: hydrochloride) [Example 73]
8 | 140 to 141.5 °C |  |  | CCNC(=O)c1ccnc(OCCCN2CCN(c3cccc4sccc34)CC2)c1 (as salt: hydrochloride) [Example 32]
9 | 174 to 176 °C |  |  | CCS(=O)(=O)Nc1ccc(OCCCN2CCN(c3cccc4sccc34)CC2)cc1 (as salt: hydrochloride) [Example 345]
10 | 174 to 176.5 °C |  |  | CN(C)C(=O)Nc1cc(OCCCN2CCN(c3cccc4sccc34)CC2)n(C)n1.Cl
11 | 247.5 to 251 °C (dec.) |  |  | COc1cc(N2CCOC2=O)cc(C)c1OCCCN1CCN(c2cccc3sccc23)CC1 (as salt: hydrochloride) [Example 358]
12 | 228 to 241 °C (dec.) |  |  | CCNCc1ccc(OCCCN2CCN(c3cccc4sccc34)CC2)cc1 (as salt: hydrochloride) [Example 286]
13 | 252.9 to 254.3 °C |  |  | Cn1cnc2ccc(OCCCN3CCN(c4cccc5sccc45)CC3)cc2c1=O (as salt: hydrochloride) [Example 95]
14 | 222.4 to 223.9 °C |  |  | Cl.c1cc(N2CCN(CCCOc3ccc4c(c3)CCN4)CC2)c2ccsc2c1
15 | 163.5 to 165 °C |  |  | CNC(=O)c1ccc(OC)c(OCCCN2CCN(c3cccc4sccc34)CC2)c1 (as salt: hydrochloride) [Example 281]
16 | 114.5 to 118 °C |  |  | Cn1nc(C(=O)O)cc1OCCCN1CCN(c2cccc3sccc23)CC1 [Example 2, 5-[3-(4-benzo[b]thiophen-4-yl-piperazin-1-yl)propoxy]-1-methyl-1H-pyrazole-3-carboxylic acid]
17 | 201.5 to 207.5 °C |  |  | CCNC(=O)c1ccc(OCCCN2CCN(c3cccc4sccc34)CC2)nc1 (as salt: hydrochloride) [Example 26]
18 | 138.5 to 140.5 °C |  |  | C=CCn1nc(C(=O)NC)cc1OCCCN1CCN(c2cccc3sccc23)CC1 [Example 3098, 1-allyl-5-[3-(4-benzo[b]thiophen-4-yl-piperazin-1-yl)propoxy]-1H-pyrazole-3-carboxylic acid methylamide]
19 | 183 to 185 °C |  |  | c1cc(N2CCN(CCCCOc3ccncc3)CC2)c2ccsc2c1 (as salt: hydrochloride) [Example 80]
20 |  | 0.6 | 0.3 | CNC(=O)c1ccc(OC)c(OCCCN2CCN(c3cccc4sccc34)CC2)c1 [Example 281]

Row | melting point | Ki [1] [nM] | Ki [2] [nM] | SMILES
21 |  | 2.5 | 1 | CN(C)Cc1ccc(OCCCN2CCN(c3cccc4sccc34)CC2)c(Cl)c1 [Example 303]
22 |  | 3.4 | 3.4 | CCNC(=O)c1cc(OCCCN2CCN(c3cccc4sccc34)CC2)no1 [Example 72]
23 |  | 0.7 | 0.4 | CCN(CC)CCc1ccc(OCCCN2CCN(c3cccc4sccc34)CC2)cc1 [Example 368]
24 |  | 0.6 | 0.5 | CN(C)CCc1ccc(OCCCN2CCN(c3cccc4sccc34)CC2)cc1 [Example 382]
25 |  | 4.7 | 0.3 | O=C1Nc2cc(OCCCCN3CCN(c4cccc5sccc45)CC3)ccc2CO1 [Example 133]
26 |  | 1.4 | 0.1 | COc1cc(N2CCN(C(C)=O)CC2)cc(CO)c1OCCCN1CCN(c2cccc3sccc23)CC1 [Example 1084]
27 |  | 1.5 | 1.1 | Cn1cnc2cc(OCCCN3CCN(c4cccc5sccc45)CC3)ccc21 [Example 121]
28 |  | 5.6 | 1.3 | CCNC(=O)c1csc(OCCCN2CCN(c3cccc4sccc34)CC2)n1 [Example 73]
29 |  | 1.9 | 1.6 | CCS(=O)(=O)Nc1ccc(OCCCN2CCN(c3cccc4sccc34)CC2)cc1 [Example 345]
30 |  | 3.5 | 1.9 | O=C1CCCc2ccc(OCCCN3CCN(c4cccc5sccc45)CC3)cc2N1 [Example 1026]
31 |  | 1.4 | 2.5 | CCNC(=O)c1ccnc(OCCCN2CCN(c3cccc4sccc34)CC2)c1 [Example 32]
32 |  | 3.1 | 2.1 | CN1CC(=O)N(C)c2ccc(OCCCN3CCN(c4cccc5sccc45)CC3)cc2C1=O [Example 1034]
33 |  | 4.9 | 2 | CNC(=O)c1cc(OCCCN2CCN(c3cccc4sccc34)CC2)ncn1 [Example 58]
34 |  | 1.1 | 0.7 | c1cc(N2CCN(CCCOc3ccc(CN4CCOCC4)cc3)CC2)c2ccsc2c1 [Example 313]
35 |  | 3.3 | 1.6 | c1cc(N2CCN(CCCCOc3ccncc3)CC2)c2ccsc2c1 [Example 80]
36 |  | 1.7 | 2.5 | CNC(=O)c1cc(OCCCN2CCN(c3cccc4sccc34)CC2)cs1 [Example 76]
37 |  | 1.4 | 0.7 | CN1Cc2ccc(OCCCN3CCN(c4cccc5sccc45)CC3)cc2C1=O [Example 123]
38 |  | 2.3 | 2.2 | Cn1c(=O)oc2cc(OCCCN3CCN(c4cccc5sccc45)CC3)ccc21 [Example 1016]
39 |  | 0.8 | 2.6 | CCNC(=O)c1ccc(OCCCN2CCN(c3cccc4sccc34)CC2)nc1 [Example 26]

Row | SMILES | melting point | Ki [1] [nM] | Ki [2] [nM]
40 | COc1cc(N2CCCCC2)cc(C)c1OCCCN1CCN(c2cccc3sccc23)CC1 (as salt: hydrochloride) [Example 1089] | 248 to 251 °C (dec.) |  | 
41 | CN(C)C(=O)N1CCC(OCCCN2CCN(c3cccc4sccc34)CC2)CC1 (as salt: hydrochloride) [Example 1110] | 202 to 205 °C |  | 
42 | COc1cc(N2CCOC2=O)cc(CO)c1OCCCN1CCN(c2cccc3sccc23)CC1 (as salt: hydrochloride) [Example 1071] | 224 to 226.5 °C (dec.) |  | 
43 | COc1cc(N2CCN(C(C)=O)CC2)cc(C)c1OCCCN1CCN(c2cccc3sccc23)CC1 (as salt: hydrochloride) [Example 1083] | 257 to 261 °C (dec.) |  | 
44 | COC(=O)N1CCN(c2cc(C=O)c(OCCCN3CCN(c4cccc5sccc45)CC3)c(OC)c2)CC1 (as salt: hydrochloride) [Example 1086] | 225 °C (dec.) |  | 
45 | COc1cc(N2CCN(C(C)=O)CC2=O)cc(C)c1OCCCN1CCN(c2cccc3sccc23)CC1 (as salt: hydrochloride) [Example 1079] | 218 to 221.5 °C |  | 
